Measured values from patent publication US11234964B2, “Use of melatonin for the treatment of tumors” (UNIVERSIDAD DE GRANADA, priority 2017, dated 2022).
“Also recorded” adds a separate entry of the source.

What was measured:
[1] = test system: tumor cells; assay: Melatonin penetration in tumor cells in vitro; assay type: cell-based; conditions: cells incubated with 1500 μM melatonin for 24 hours
Protocol: To carry out the assays, CAL-27 and SCC9 cells have been used as typical example of head and neck squamous cell carcinoma (HNSCC) cancer cells.
In the in-vitro experiments, the tumor cells were incubated with different concentrations of melatonin. It was observed that melatonin readily enters the tumor cells, reaching levels of 450 ng/mg of proteins after incubating the cells with melatonin at a dose of 1500 μM for 24 hours (FIG. 1).

[2] = athymic nude (nu/nu), mouse, in vivo
Protocol: (§1) For the in vivo assays, athymic nude mice (nu/nu) (Janvier, Pays de la Loire, France) of about 5-6 weeks of age (18-20 g) were used. The animals were held in the animal housing unit of the Biomedical Research Center of University of Granada (CIBM) in sterile conditions and under controlled photoperiod (12:12 h) and temperature (22±1° C.) environments, with ad libitum water and laboratory diet. The handling and transplant of the animals was carried out in a laminar flow biosafety cabinet. The animals were anesthetized with an i.p. injection of ketamine (80 mg/kg) and xylazine (4 mg/kg).
(§2) Xenografts were performed with CAL-27 and SCC9 cells (the latter being resistant to melatonin). Cells enzymatically separated with trypsin-EDTA are resuspended at a concentration of 4×10^6 cells per mouse in PBS. Cell viability is determined by means of the Trypan Blue test. The cells are injected into the left flank of the mouse, with a volume of 200 μL of cell suspension being injected into each mouse with the help of a 1 mL syringe with a needle measuring 16×0.5 mm.
The experimental groups were as follows: • 1. […]
The concentration of melatonin in the tumors was measured after sacrificing the animals after 21 days. When it is injected directly into the tumor, the concentration of melatonin cannot be measured due to the limited amount of sample taking into account that the tumor practically disappears.

[3] = test system: CAL-27 and SCC9 cells xenografts; assay: Tumor volume in xenografted mice (photographs, NMR analysis); assay type: in vivo, athymic nude mice (nu/nu); conditions: for tumor volume: intratumoral injection
Protocol: as §1, §2
The body weight and tumor size are measured and recorded two or three times a week throughout the experiment. The tumor volume is calculated using the following formula: ½ (L×W2) (mm^3), where L is the length and W is the width. After the appearance of a tumoral node (100 mm^3), the mice carrying the tumors are randomly assigned to several groups.
The experimental groups were as follows: • 1. Mouse with untreated tumor • 2. Mouse with tumor treated with subcutaneously administered melatonin (s.c.) at a dose of 300 mg/kg (4.5% w/v melatonin solution). The concentration of melatonin in the tumor when melatonin is administered through this route is 10 ng/mg of proteins. • 3. Mouse with tumor treated with administered intratumorally melatonin (60 μl of a 0.1% w/v melatonin solution) fora tumor volume of 100 mm^3. 0.1% of melatonin is the minimum effective dose (in vitro) for inducing 80% cell death. When 0.1% of melatonin is administered, a concentration of 450 ng/mg of proteins is reached in the tumor. • 4. Mouse with tumor treated with intratumorally melatonin administered (60 μl of a 4.5% melatonin solution) for a tumor volume of 100 mm^3.
Therefore, once the tumor reached the indicated volume of 100 mm^3, it is treated with melatonin daily for 21 days according to the following protocol: • A. Injected s.c. (300 mg/kg which is equivalent to a 4.5% solution) • B. Injected directly into the tumor (60 μl of a 0.1% melatonin solution) • C. Injected directly into the tumor (60 μl of a 4.5% melatonin solution) • D. Injected directly into the tumor (60 μl of a 0.1% melatonin solution) until the complete disappearance of the tumor (28 days). • E. Photographs of the tumor were taken at the end of the treatment of each of the groups. […]

[4] = test system: tumor cells (CAL-27); assay: Cell death, apoptosis and proliferation of tumor cells in vitro; assay type: cell-based
Text: To carry out the assays, CAL-27 and SCC9 cells have been used as typical example of head and neck squamous cell carcinoma (HNSCC) cancer cells. […] The relationship between the mitochondrial changes caused by melatonin and the cell death induced by this molecule in these tumor cells has been studied. Melatonin increases mitochondrial mass, mitochondrial DNA, the number of mitochondria, as well as the number of mitochondrial cristae. The result is an increase in respiratory chain complexes, and accordingly an increase in oxygen consumption, which is related to an increase in free radicals and oxidative stress. […] In other words, the cytotoxic effects of melatonin in the tumor cells are related to an increase in mitochondrial function, and the increase in mitochondrial function in the tumor cell in turn induces apoptosis processes, which also entails the inhibition of protein synthesis.

[5] = test system: tumor cells; assay: Mitochondrial changes, oxygen consumption and free radicals in tumor cells; assay type: cell-based
Text: The relationship between the mitochondrial changes caused by melatonin and the cell death induced by this molecule in these tumor cells was studied. Melatonin increases the number of mitochondria as well as the number of cristae, DNA, and mitochondrial mass. The result is an increase in respiratory chain complexes, and accordingly an increase in oxygen consumption, which is related to an increase in free radicals and oxidative stress reflected by an increase in the GSSG/GSH ratio. However, the antioxidant capacity is not modified. The activity and the expression of antioxidant enzymes such as GPx and the GRd is not modified either. […] In other words, mitochondrial activity increases, and accordingly free radicals which induce cell death also increase. To carry out the assays, CAL-27 and SCC9 cells have been used as typical example of head and neck squamous cell carcinoma (HNSCC) cancer cells.

[6] = test system: CAL-27 tumor cells; assay: GPx and GRd antioxidant enzyme activity in tumor cells; assay type: cell-based
Text: The relationship between the mitochondrial changes caused by melatonin and the cell death induced by this molecule in these tumor cells was studied. Melatonin increases the number of mitochondria as well as the number of cristae, DNA, and mitochondrial mass. The result is an increase in respiratory chain complexes, and accordingly an increase in oxygen consumption, which is related to an increase in free radicals and oxidative stress reflected by an increase in the GSSG/GSH ratio. However, the antioxidant capacity is not modified. The activity and the expression of antioxidant enzymes such as GPx and the GRd is not modified either.

[7] = test system: SCC-9 cells; assay: Mitochondrial function and free radicals in melatonin-resistant cells; assay type: cell-based
Text: The relationship between the mitochondrial changes caused by melatonin and the cell death induced by this molecule in these tumor cells was studied. Melatonin increases the number of mitochondria as well as the number of cristae, DNA, and mitochondrial mass. The result is an increase in respiratory chain complexes, and accordingly an increase in oxygen consumption, which is related to an increase in free radicals and oxidative stress reflected by an increase in the GSSG/GSH ratio. However, the antioxidant capacity is not modified. The activity and the expression of antioxidant enzymes such as GPx and the GRd is not modified either. […] To carry out the assays, CAL-27 and SCC9 cells have been used as typical example of head and neck squamous cell carcinoma (HNSCC) cancer cells.

With `COc1ccc2[nH]cc(CCNC(C)=O)c2c1` [melatonin, N-acetyl-5-methoxytryptamine] the “melatonin levels in tumor cells” value [1] was 450 ng/mg of proteins, the “concentration of melatonin reached in the tumor” value [2] was 450 ng/mg of proteins and the tumor volume ([3]; 21 days after treatment) was “decreases drastically; also recorded: disappearing almost completely; also recorded: the decrease in tumor volume is so drastic that the tumor can hardly be observed”. For the same compound, the tumor volume ([3]; 28 days after treatment) was “completely disappears; also recorded: disappears completely; also recorded: virtually disappeared”, the “necrotic areas in tumors (NMR images)” value ([3]; s.c. administered melatonin) was “certain necrotic areas are observed” and the “tumor volume with respect to the control” value ([3]; subcutaneous (systemic route), 300 mg/kg, 21 days) was “decreases very little; also recorded: the decrease in tumor volume is much lower; also recorded: the tumor volume decreases, although the effect is not very significant”. For the same compound, the cell cycle [4] was “stopping of cell cycle in the S and G2 phases”, the cell proliferation [4] was “Inhibition” and the “size and number of colonies of tumor cells” value ([4]; CAL-27 irradiated and treated with melatonin) was “significant decrease”. The “minimum effective dose (in vitro) for inducing 80% cell death” value ([4]; in vitro) was 0.1%, the apoptosis ([4]; tumor cells, high concentrations) was “increases apoptosis in a dose and time dependent manner” and the ATP production [5] was “does not increase”. For the same compound, the “GSSG/GSH ratio (oxidative stress)” value [5] was “increase”, the free radicals [5] was “increase” and the “intermediate products of the Krebs cycle (metabolomics)” value [5] was “increase”. The “mitochondrial DNA” value [5] was “increases”, the mitochondrial mass [5] was “increases” and the “number of mitochondria and number of cristae” value [5] was “increases”. For the same compound, the oxygen consumption [5] was “increase”, the SOD [6] was “slight increase” and the antioxidant capacity [6] was “not modified”. For the same compound, the “GPx and GRd antioxidant enzyme activity” value ([6]; CAL-27 tumor cells) was “not modified; also recorded: does not increase”, the “mitochondrial oxygen consumption and production of free radicals” value ([7]; SCC-9 cells, compared with CAL-27) was “less production of reactive oxygen species; also recorded: much lower” and the “sensitivity of cells to melatonin” value ([7]; SCC-9 head and neck cancer cells) was “more resistant”.
